Key:
[1] = Tissue-blood distribution coefficients and volume of distribution; conditions: whole blood, pH 7.5, Estimated volume of distribution Vd, residues in muscle, liver and blood only
Protocol: Blood is the transport medium for contaminants in fish, and the tissue distribution is governed by tissue–blood distribution coefficients. […] Muscle–blood and liver–blood distribution coefficients (DMus–B and DL–B) were calculated as the quotients of the concentrations in the respective tissues and blood. This approach implies that there was an internal test chemical steady state in the fish.
The experimental data also allow estimation of the volume of distribution (Vd), an important parameter for extrapolating in vitro measures of e.g. metabolism to in vivo. In the context of quantitative in vitro–in vivo extrapolation for fish, Vd is defined as the quotient of the concentration in fish and the concentration in blood and describes the equivalent volume of blood that would contain the same amount of the chemical as 1 kg of fish.[40]Vd was estimated using the residues that had been clearly taken up systemically (i.e., those in muscle, liver and blood).

[2] = Membrane-water partition/distribution coefficient; conditions: extrapolated from data of Timmer and Droge (2017)
[3] = test system: rainbow trout (Oncorhynchus mykiss); experiment: Contribution of tissues to fish body burden; format: in vivo; conditions: for Contribution of Blood to the fish's body burden / Contribution of Gills to the fish's body burden / Contribution of Liver to the fish's body burden / Contribution of Mucus to the fish's body burden / Contribution of Other tissue (all apart from blood, liver, gills and skin; muscle concentration assumed) to body burden / Contribution of Skin to the fish's body burden: fraction; for % contribution to body burden, Gills / % contribution to body burden, Mucus / % contribution to body burden, Liver / % contribution to body burden, Skin / % contribution to body burden, Muscle: mean across fish, Figure 1; for % contribution to body burden, Liver / % contribution to body burden, Skin / % contribution to body burden, Muscle: Q10, Q14 maximum estimates; for % contribution to body burden, Muscle: includes all tissues not specifically analyzed
From the text: To calculate the quantity of the test chemical in the different tissues, the amount of each tissue in the fish was estimated and multiplied by the concentration in that tissue. The test chemical quantities in the different tissues were then summed to give the body burden in each fish. The total weight of the fish and the weight of the liver and gills were available from the dissection (Table S16). For skin and mucus, the estimated outer surface area of the fish was used. We note that the distinction between mucus and skin is an operational one determined by the extraction method; mucus can be viewed as a more readily extracted fraction of the test chemical residues at the fish surface. The volume of blood was taken as 0.0495 mL g^–1 fish.[30] The remaining tissue (difference between the weight of the whole fish and the weight of liver, gills, skin, and blood) was assumed to have the concentration measured in the muscle. The contribution of the different tissues to the body burden is given for each fish in Table S17, and the average contribution across all fish is plotted in Figure 1. All of the tissues, with the exception of blood, contribute at least 10% of the body burden for at least half of the test chemicals. There is no consistent negative correlation between the fraction of chemical associated with blood, muscle, and liver (tissues where the residue originates entirely from systemic uptake) and alkyl chain length (a measure of hydrophobicity). Thus, although adsorption to fish surfaces appears to play a significant role, its contribution to body burden cannot be simply predicted from surfactant hydrophobicity. In the following, we examine uptake in individual tissues.

[4] = test system: rainbow trout (Oncorhynchus mykiss); experiment: Surface area-normalized mucus-water and gill-water distribution coefficients
Protocol: For each mixture, the syringe pump was started in an aquarium containing no fish. After 16 h, to allow the concentrations to stabilize, 12 rainbow trout were added. After 7 d of exposure, the fish in the exposure aquaria as well as several unexposed (control) fish were sacrificed. Following stunning, blood was collected with a heparinized syringe from the caudal vein into a 2 mL Eppendorf tube. The fish were weighed and photographed, and the length was measured. The outer surface area of the fish was estimated from the fish weight according to O’Shea et al.[27] [drawing 1] 1
The gill surface area was estimated from the fish weight according to the equation specific for O. mykiss from a report by Hughes,[28] taken from ref ([29]) [drawing 2] 2
Because the mass of extracted mucus was not determined, the concentrations in mucus were normalized to the estimated fish’s total surface area (eq 1) excluding the head, which was not rinsed.
Surface area-normalized gill–water distribution coefficients (DG–W) were calculated from the average concentrations measured in gills and water, and a calculated gill surface based on rainbow trout specific scaling factors (eq 2). […] Unlike the skin, the gills were not rinsed with methanol, so the gill samples included gill mucus.

CCCCCCCCCCCCCCCCN [P16, hexadecylamine]
Vd at 7 d ([1]; Mean): 1.13 L/kg
Vd at 7 d ([1]; exposed fish #1): 0.99 L/kg
Vd at 7 d ([1]; exposed fish #2): 1.2 L/kg
Vd at 7 d ([1]; exposed fish #3): 1.1 L/kg
Vd at 7 d ([1]; exposed fish #4): 1.63 L/kg
Vd at 7 d ([1]; exposed fish #5): 1.15 L/kg
Vd at 7 d ([1]; exposed fish #6): 0.73 L/kg
Log KMW,C (membrane-water partition coefficient of the charged form), extrapolated [2]: 7.90
Contribution of Blood to the fish's body burden ([3]; Fish #1): 0.013
Contribution of Gills to the fish's body burden ([3]; Fish #1): 0.62
Contribution of Liver to the fish's body burden ([3]; Fish #1): 0.11
Contribution of Mucus to the fish's body burden ([3]; Fish #1): 0.04
Contribution of Other tissue (all apart from blood, liver, gills and skin; muscle concentration assumed) to body burden ([3]; Fish #1): 0.14
Contribution of Skin to the fish's body burden ([3]; Fish #1): 0.08
Contribution of Blood to the fish's body burden ([3]; Fish #2): 0.011
Contribution of Gills to the fish's body burden ([3]; Fish #2): 0.57
Contribution of Liver to the fish's body burden ([3]; Fish #2): 0.14
Contribution of Mucus to the fish's body burden ([3]; Fish #2): 0.03
Contribution of Other tissue (all apart from blood, liver, gills and skin; muscle concentration assumed) to body burden ([3]; Fish #2): 0.13
Contribution of Skin to the fish's body burden ([3]; Fish #2): 0.12
Contribution of Blood to the fish's body burden ([3]; Fish #3): 0.012
Contribution of Liver to the fish's body burden ([3]; Fish #3): 0.12
Contribution of Mucus to the fish's body burden ([3]; Fish #3): 0.04
Contribution of Other tissue (all apart from blood, liver, gills and skin; muscle concentration assumed) to body burden ([3]; Fish #3): 0.15
Contribution of Skin to the fish's body burden ([3]; Fish #3): 0.10
Contribution of Blood to the fish's body burden ([3]; Fish #4): 0.010
Contribution of Gills to the fish's body burden ([3]; Fish #4): 0.50
Contribution of Liver to the fish's body burden ([3]; Fish #4): 0.15
Contribution of Mucus to the fish's body burden ([3]; Fish #4): 0.04
Contribution of Other tissue (all apart from blood, liver, gills and skin; muscle concentration assumed) to body burden ([3]; Fish #4): 0.18
Contribution of Skin to the fish's body burden ([3]; Fish #4): 0.12
Contribution of Blood to the fish's body burden ([3]; Fish #5): 0.008
Contribution of Gills to the fish's body burden ([3]; Fish #5): 0.65
Contribution of Liver to the fish's body burden ([3]; Fish #5): 0.08
Contribution of Mucus to the fish's body burden ([3]; Fish #5): 0.05
Contribution of Other tissue (all apart from blood, liver, gills and skin; muscle concentration assumed) to body burden ([3]; Fish #5): 0.11
Contribution of Skin to the fish's body burden ([3]; Fish #5): 0.10
Contribution of Blood to the fish's body burden ([3]; Fish #6): 0.016
Contribution of Gills to the fish's body burden ([3]; Fish #6): 0.58
Contribution of Liver to the fish's body burden ([3]; Fish #6): 0.11
Contribution of Mucus to the fish's body burden ([3]; Fish #6): 0.06
Contribution of Other tissue (all apart from blood, liver, gills and skin; muscle concentration assumed) to body burden ([3]; Fish #6): 0.11
Contribution of Skin to the fish's body burden ([3]; Fish #6): 0.13
Contribution of Blood to the fish's body burden ([3]; Mean): 0.012
Contribution of Gills to the fish's body burden ([3]; Mean): 0.58
Contribution of Liver to the fish's body burden ([3]; Mean): 0.12
Contribution of Mucus to the fish's body burden ([3]; Mean): 0.04
Contribution of Other tissue (all apart from blood, liver, gills and skin; muscle concentration assumed) to body burden ([3]; Mean): 0.13
Contribution of Skin to the fish's body burden ([3]; Mean): 0.11
Share of body burden present in gills and mucus ([3]; in vivo): at least 50%
% contribution to body burden, Gills [3]: 58%
% contribution to body burden, Mucus [3]: 4%
% contribution to body burden, Liver [3]: 12%
% contribution to body burden, Skin [3]: 11%
% contribution to body burden, Muscle [3]: 13%

CCCCCCCCCN [P9, Nonylamine]
Gill-water distribution coefficient (DG-W) ([4]; from average concentrations in gills and water, calculated gill surface): 0.44 mLcm-2
Mucus-water distribution coefficient (DMuc-W) ([4]; from average concentrations in mucus and water): 0.47 mL cm-2
Vd at 7 d ([1]; Mean): 0.91 L/kg
Vd at 7 d ([1]; exposed fish #1): 0.59 L/kg
Vd at 7 d ([1]; exposed fish #2): 1.06 L/kg
Vd at 7 d ([1]; exposed fish #3): 0.8 L/kg
Vd at 7 d ([1]; exposed fish #4): 1.6 L/kg
Vd at 7 d ([1]; exposed fish #5): 0.83 L/kg
Vd at 7 d ([1]; exposed fish #6): 0.56 L/kg
Contribution of Blood to the fish's body burden ([3]; Fish #1): 0.016
Contribution of Gills to the fish's body burden ([3]; Fish #1): 0.36
Contribution of Liver to the fish's body burden ([3]; Fish #1): 0.09
Contribution of Mucus to the fish's body burden ([3]; Fish #1): 0.38
Contribution of Other tissue (all apart from blood, liver, gills and skin; muscle concentration assumed) to body burden ([3]; Fish #1): 0.08
Contribution of Skin to the fish's body burden ([3]; Fish #1): 0.07
Contribution of Blood to the fish's body burden ([3]; Fish #2): 0.017
Contribution of Gills to the fish's body burden ([3]; Fish #2): 0.26
Contribution of Liver to the fish's body burden ([3]; Fish #2): 0.20
Contribution of Mucus to the fish's body burden ([3]; Fish #2): 0.23
Contribution of Other tissue (all apart from blood, liver, gills and skin; muscle concentration assumed) to body burden ([3]; Fish #2): 0.14
Contribution of Skin to the fish's body burden ([3]; Fish #2): 0.15
Contribution of Blood to the fish's body burden ([3]; Fish #3): 0.021
Contribution of Liver to the fish's body burden ([3]; Fish #3): 0.17
Contribution of Mucus to the fish's body burden ([3]; Fish #3): 0.20
Contribution of Other tissue (all apart from blood, liver, gills and skin; muscle concentration assumed) to body burden ([3]; Fish #3): 0.14
Contribution of Skin to the fish's body burden ([3]; Fish #3): 0.16
Contribution of Blood to the fish's body burden ([3]; Fish #4): 0.010
Contribution of Gills to the fish's body burden ([3]; Fish #4): 0.28
Contribution of Liver to the fish's body burden ([3]; Fish #4): 0.19
Contribution of Mucus to the fish's body burden ([3]; Fish #4): 0.28
Contribution of Other tissue (all apart from blood, liver, gills and skin; muscle concentration assumed) to body burden ([3]; Fish #4): 0.12
Contribution of Skin to the fish's body burden ([3]; Fish #4): 0.11
Contribution of Blood to the fish's body burden ([3]; Fish #5): 0.012
Contribution of Gills to the fish's body burden ([3]; Fish #5): 0.35
Contribution of Liver to the fish's body burden ([3]; Fish #5): 0.08
Contribution of Mucus to the fish's body burden ([3]; Fish #5): 0.36
Contribution of Other tissue (all apart from blood, liver, gills and skin; muscle concentration assumed) to body burden ([3]; Fish #5): 0.12
Contribution of Skin to the fish's body burden ([3]; Fish #5): 0.09
Contribution of Blood to the fish's body burden ([3]; Fish #6): 0.018
Contribution of Gills to the fish's body burden ([3]; Fish #6): 0.26
Contribution of Liver to the fish's body burden ([3]; Fish #6): 0.08
Contribution of Mucus to the fish's body burden ([3]; Fish #6): 0.35
Contribution of Other tissue (all apart from blood, liver, gills and skin; muscle concentration assumed) to body burden ([3]; Fish #6): 0.10
Contribution of Skin to the fish's body burden ([3]; Fish #6): 0.19
Contribution of Blood to the fish's body burden ([3]; Mean): 0.016
Contribution of Gills to the fish's body burden ([3]; Mean): 0.30
Contribution of Liver to the fish's body burden ([3]; Mean): 0.14
Contribution of Mucus to the fish's body burden ([3]; Mean): 0.30
Contribution of Other tissue (all apart from blood, liver, gills and skin; muscle concentration assumed) to body burden ([3]; Mean): 0.12
Contribution of Skin to the fish's body burden ([3]; Mean): 0.13
% contribution to body burden, Gills [3]: 30%
% contribution to body burden, Mucus [3]: 30%
% contribution to body burden, Liver [3]: 14%
% contribution to body burden, Skin [3]: 13%
% contribution to body burden, Muscle [3]: 12%
